Values quoted from earlier work, collected in patent publication US20230398111A1, “ORAL FORMULATIONS OF NINTEDANIB AND METHOD OF MANUFACTURING THEREOF” (BDR PHARMACEUTICALS INTERNATIONAL PRIVATE LIMITED, priority 2020, published 2023).

Details: neutral conditions / neutral pH

- solubility: poor solubility
SMILES: COC(=O)c1ccc2c(c1)NC(=O)/C2=C(\Nc1ccc(N(C)C(=O)CN2CCN(C)CC2)cc1)c1ccccc1 [Nintedanib esylate, methyl-2-hydroxy-3-[N-[4-[methyl-[2-(4-methylpiperazin-1-yl)acetyl]amino]phenyl]-C-phenylcarbonimidoyl]-1H-indole-6-carboxylate ethanesulfonic acid]
